Laboratory results: patent publication US20250304594A1, “METHYL (R)-2-(FLUOROMETHYL)-5-OXO-4-PHENYL-4,5,6,7-TETRAHYDRO-1H-CYCLOPENTA[B]PYRIDINE-3-CARBOXYLATE AND METHYL (R)-2-(FLUOROMETHYL)-5-OXO-4-PHENYL-1,4,5,7-TETRAHYDROFURO[3,4-B]PYRIDINE-3-CARBOXYLATE AS Cav1,2 ACTIVATORS” (Novartis AG, priority 2020, published 2025)

Target: T1, human CaV1.2 (Homo sapiens, UniProt Q13936)
T1 construct: expressed in transfected cells; host or cells: Flp-In 293 T-Rex (HEK293), monoclonal CaV1.2-HEK293(AUX) clone 2-19B; doxycycline-induced auxiliary subunits
Assay: Sophion QPatch dose-response assay, whole-cell voltage clamp of barium currents in CaV1.2-HEK293(AUX) cells
Type: cell-based
Settings: Table 9, n = 1 unless * n = 2; for EC50: 6-point dose response, 10 determinations per concentration; for Qpatch Emax: maximal fold change of peak inward current
Description: The monoclonal CaV1.2-HEK293(AUX) cell line constitutively expresses human CaV1.2 alpha1C (α1C) subunit (CACNA1C) and has doxycycline-inducible expression of the alpha2delta (α2Δ2) auxiliary subunit (CACNA2D2) and beta2 (02) auxiliary subunit (CACNB2). To generate the cell line, expression vectors pcDNA5.0/FRT-TO-CACNA2D2-FCS-P2A-CACNB2 and pCMV6-entry-CACNA1C were established via gene synthesis and cloning. Here, pcDNA5.0/FRT-TO plasmid is from Invitrogen, pCMV6-entry is from Origene, FCS stands for Furin Cleavage Site, P2A is a peptide self-cleavage sequence derived from porcine teschovirus-1, and FRT is the Flippase recognition target site. Next, parental line Flp-In™ 293 T-Rex (Invitrogen) was transfected with pcDNA5.0/FRT-TO-CACNA2D2-FCS-P2A-CACNB2 and Flippase vector pOG44 (Invitrogen) to establish targeted integration of the CACNA2D2-FCS-P2A-CACNB2 expression cassette into the pre-engineered FRT site in Flp-In™ 293 T-Rex. This intermediate cell line was then transfected with pCMV6-entry-CACNA1C to establish stable CACNA1C expression. Clonal isolation was achieved under Neomycin selection.
Electrophysiological Characterization of CaV1.2 Activators Using CaV1.2-HEK293(AUX) Cell Line and QPatch
24 hours prior an electrophysiology experiment, doxycycline (1 μg/ml) was added to the growth medium (Table 6), and 25 μM of verapamil was co-applied to prevent calcium influx triggered cell death. Cell confluency should reach 70%-80% right before the experiment. To harvest cells (from a T175 cm^2 flask as an example), growth media were removed completely, and the cells were rinsed with 10 mL of D-PBS. D-PBS was aspirated, and 10 mL of Detachin (Genlantis) was added and the plate was placed in a 37° C. incubator for 10 minutes. Detached cells were placed into a 15 mL conical tube and spun at 1000 rpm for 2 minutes. Supernatant was removed, and cells were re-suspended in QPatch complete media (Table 7) to desired cell density of 1.5-3 million cells per QPatch run. Each experimental run uses 1.5 mL of cells.
The cells suspension was taken to the Sophion QPatch platform that uses whole-cell voltage clamp to measure barium currents conducted through CaV1.2 on single-hole QPlates. Extracellular and intracellular patch clamp solutions are described in Tables 7 and 8, respectively. A dose-response assay protocol was used to determine the maximal fold change of peak inward current (Emax) and potency (EC50) of each compound. The protocol had eight liquid periods. The first liquid period was to stabilize current amplitude, which was monitored using repetitive 200-ms voltage pulses stepping from −80 mV to 0 mV. The second liquid period was to determine baseline current amplitude in the presence of vehicle control, using a single 20-ms voltage pulse stepping from −80 mV to 0 mV. The third through eighth liquid periods were used to ascertain a 6-dose response to compound treatments, also using single 20-ms voltage pulses stepping from −80 mV to 0 mV. The EC50 was generated using the following equation Iconcentration=Ibase+(Ifull−Ibase)*c^n/(XC50^n+c^n), where c is the concentration and n is the Hill coefficient constant. Ifull is the maximal current achievable, and Ibase is 0. A channel biophysics assay protocol was used to determine channel gating properties including current-voltage relationship (IV curves), half-way channel activation voltage (V1/2), rate of channel inactivation (tau), and amplitude of tail current. Among these, V1/2 was derived from fitting equation G(V)=Gvmin+(Gvmax−Gvmin)/(1+exp(−(V−V½)/Vslope)), where G stands for conductance, Gvmin equals 0, Gvmax is the maximal conductance, and Vslope is a slope factor. G(V) was pre-calculated from equation G(V)=I(V)/(V−0.06), for each experimentally applied depolarization potential (V) and the corresponding current amplitude (I(V)), and 0.06 in the equation was the experimentally determined reversal potential in volts. The protocol had four liquid periods.

T1 sequence (Q13936 1-2138 isoform Q13936-23): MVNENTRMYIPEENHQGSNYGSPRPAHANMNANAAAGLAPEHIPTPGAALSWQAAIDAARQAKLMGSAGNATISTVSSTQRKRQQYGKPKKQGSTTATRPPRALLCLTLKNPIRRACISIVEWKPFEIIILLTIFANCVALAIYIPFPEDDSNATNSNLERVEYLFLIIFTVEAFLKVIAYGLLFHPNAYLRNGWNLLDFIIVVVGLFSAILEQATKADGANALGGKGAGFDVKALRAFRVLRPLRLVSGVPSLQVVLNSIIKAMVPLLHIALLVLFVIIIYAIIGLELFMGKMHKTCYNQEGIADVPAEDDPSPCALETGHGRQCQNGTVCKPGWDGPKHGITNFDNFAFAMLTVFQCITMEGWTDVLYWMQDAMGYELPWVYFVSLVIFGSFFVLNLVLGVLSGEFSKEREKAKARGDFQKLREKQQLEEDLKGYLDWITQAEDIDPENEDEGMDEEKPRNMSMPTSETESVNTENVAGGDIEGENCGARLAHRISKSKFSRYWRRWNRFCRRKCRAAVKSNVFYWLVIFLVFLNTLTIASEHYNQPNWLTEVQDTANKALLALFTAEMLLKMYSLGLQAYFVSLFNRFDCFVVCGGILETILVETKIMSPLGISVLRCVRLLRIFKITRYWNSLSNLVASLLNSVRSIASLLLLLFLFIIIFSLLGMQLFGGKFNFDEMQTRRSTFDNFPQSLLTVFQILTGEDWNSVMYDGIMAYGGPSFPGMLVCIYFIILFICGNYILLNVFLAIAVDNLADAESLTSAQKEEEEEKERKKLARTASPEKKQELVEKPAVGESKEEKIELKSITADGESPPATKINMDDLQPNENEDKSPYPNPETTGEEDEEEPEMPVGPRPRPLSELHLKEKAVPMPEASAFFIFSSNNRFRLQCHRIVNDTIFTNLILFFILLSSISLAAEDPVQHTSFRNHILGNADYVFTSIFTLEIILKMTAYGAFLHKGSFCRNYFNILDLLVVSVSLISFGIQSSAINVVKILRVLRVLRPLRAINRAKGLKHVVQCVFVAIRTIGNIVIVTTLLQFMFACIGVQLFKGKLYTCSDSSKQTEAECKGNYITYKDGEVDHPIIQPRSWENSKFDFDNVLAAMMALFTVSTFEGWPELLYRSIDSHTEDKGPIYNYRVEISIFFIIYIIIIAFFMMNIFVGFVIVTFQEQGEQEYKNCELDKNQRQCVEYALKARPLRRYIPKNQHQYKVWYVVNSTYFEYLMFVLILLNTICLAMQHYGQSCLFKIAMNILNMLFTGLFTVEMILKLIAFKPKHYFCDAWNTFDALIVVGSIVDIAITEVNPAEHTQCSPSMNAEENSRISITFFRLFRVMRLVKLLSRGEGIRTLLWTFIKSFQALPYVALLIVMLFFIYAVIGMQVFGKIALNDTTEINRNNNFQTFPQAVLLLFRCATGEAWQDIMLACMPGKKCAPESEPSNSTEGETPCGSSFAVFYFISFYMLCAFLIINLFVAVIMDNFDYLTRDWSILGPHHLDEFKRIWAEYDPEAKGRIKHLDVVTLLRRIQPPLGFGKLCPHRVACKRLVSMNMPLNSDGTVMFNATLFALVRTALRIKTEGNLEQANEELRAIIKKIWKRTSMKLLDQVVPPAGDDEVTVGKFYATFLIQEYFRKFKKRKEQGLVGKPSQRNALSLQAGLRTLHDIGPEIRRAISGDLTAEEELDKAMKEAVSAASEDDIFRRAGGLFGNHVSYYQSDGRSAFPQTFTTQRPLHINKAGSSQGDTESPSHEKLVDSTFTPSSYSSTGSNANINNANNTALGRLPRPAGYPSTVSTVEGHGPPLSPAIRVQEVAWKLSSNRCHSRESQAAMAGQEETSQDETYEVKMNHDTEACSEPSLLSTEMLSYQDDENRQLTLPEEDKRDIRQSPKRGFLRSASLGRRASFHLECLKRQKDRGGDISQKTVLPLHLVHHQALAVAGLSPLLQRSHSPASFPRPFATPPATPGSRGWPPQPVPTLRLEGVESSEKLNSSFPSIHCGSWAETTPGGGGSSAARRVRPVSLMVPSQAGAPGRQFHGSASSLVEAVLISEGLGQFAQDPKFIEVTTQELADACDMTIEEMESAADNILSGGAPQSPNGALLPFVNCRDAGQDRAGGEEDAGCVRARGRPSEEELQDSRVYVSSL
T1 sequence (Q9NY47 19-1001 partner limits assumed): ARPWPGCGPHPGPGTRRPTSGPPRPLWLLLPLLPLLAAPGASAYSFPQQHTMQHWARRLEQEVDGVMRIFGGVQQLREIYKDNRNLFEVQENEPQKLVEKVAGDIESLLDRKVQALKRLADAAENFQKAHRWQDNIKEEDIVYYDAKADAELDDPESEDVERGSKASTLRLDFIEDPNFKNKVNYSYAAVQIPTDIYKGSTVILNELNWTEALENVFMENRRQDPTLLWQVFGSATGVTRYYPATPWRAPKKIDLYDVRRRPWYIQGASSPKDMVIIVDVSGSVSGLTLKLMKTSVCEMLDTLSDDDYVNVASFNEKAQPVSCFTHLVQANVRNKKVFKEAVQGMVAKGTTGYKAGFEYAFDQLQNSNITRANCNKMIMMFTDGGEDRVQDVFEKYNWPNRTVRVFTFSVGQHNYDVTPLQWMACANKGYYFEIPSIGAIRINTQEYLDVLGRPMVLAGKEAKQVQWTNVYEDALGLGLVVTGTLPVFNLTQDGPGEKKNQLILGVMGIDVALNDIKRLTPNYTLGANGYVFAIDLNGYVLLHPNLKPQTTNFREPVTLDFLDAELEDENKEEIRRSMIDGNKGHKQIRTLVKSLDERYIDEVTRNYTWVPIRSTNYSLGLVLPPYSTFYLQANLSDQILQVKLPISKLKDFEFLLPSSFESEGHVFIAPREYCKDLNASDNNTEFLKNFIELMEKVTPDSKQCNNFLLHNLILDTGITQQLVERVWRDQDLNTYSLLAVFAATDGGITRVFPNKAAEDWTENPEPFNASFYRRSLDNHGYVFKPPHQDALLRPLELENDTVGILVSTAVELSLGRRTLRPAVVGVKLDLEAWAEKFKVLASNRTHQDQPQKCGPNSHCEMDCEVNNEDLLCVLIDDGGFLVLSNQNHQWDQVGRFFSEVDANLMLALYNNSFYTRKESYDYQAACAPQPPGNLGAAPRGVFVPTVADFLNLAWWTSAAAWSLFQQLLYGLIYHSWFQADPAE
T1 sequence (Q9NY47 1002-1150 partner limits assumed): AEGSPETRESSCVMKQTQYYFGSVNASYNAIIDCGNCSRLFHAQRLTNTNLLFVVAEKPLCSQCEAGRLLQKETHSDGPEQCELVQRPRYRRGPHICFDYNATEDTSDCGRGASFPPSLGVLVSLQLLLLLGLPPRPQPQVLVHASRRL
T1 sequence (Q08289 whole entry partner): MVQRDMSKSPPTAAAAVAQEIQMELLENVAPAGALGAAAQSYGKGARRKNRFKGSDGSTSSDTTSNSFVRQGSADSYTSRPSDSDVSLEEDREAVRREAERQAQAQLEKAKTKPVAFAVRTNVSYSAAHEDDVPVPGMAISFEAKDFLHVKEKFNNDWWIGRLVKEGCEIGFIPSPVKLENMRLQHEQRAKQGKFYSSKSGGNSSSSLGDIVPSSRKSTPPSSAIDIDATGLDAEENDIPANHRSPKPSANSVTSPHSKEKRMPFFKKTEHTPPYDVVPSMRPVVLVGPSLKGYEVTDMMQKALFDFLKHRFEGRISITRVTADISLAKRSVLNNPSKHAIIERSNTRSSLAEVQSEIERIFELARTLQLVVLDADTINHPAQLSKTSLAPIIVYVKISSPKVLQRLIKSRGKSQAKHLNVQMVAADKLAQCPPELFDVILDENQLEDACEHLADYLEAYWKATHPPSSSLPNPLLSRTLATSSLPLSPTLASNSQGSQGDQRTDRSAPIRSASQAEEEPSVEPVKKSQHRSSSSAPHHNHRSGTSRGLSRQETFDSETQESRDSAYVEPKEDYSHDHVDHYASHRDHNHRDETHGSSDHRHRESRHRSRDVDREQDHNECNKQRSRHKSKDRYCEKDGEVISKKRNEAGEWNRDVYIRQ

Row | Compound | EC50 [nM] | Qpatch Emax
1 | COC(=O)C1=C(CF)NC2=C(C(=O)OC2)[C@H]1c1cc(F)cc(F)c1[C@H]1CC1(F)F (single isomer, unassigned) [Example 3, Methyl (R)-4-(2-((R or S)-2,2-difluorocyclopropyl)-3,5-difluorophenyl)-2-(fluoromethyl)-5-oxo-1,4,5,7-tetrahydrofuro[3,4-b]pyridine-3-carboxylate] | 50 | 1.6
2 | COC(=O)C1=C(CF)NC2=C(C(=O)CC2)[C@H]1c1cccc(F)c1[C@@H](F)CF (single isomer, unassigned) [Example 7, methyl (R)-4-(2-((R or S)-1,2-difluoroethyl)-3-fluorophenyl)-2-(fluoromethyl)-5-oxo-4,5,6,7-tetrahydro-1H-cyclopenta[b]pyridine-3-carboxylate] | 30 | 1.8
3 | COC(=O)C1=C(CF)NC2=C(C(=O)OC2)[C@H]1c1cccc(F)c1C1CC1 (single isomer, unassigned) [Example 2] | 12 | 2.3
4 | COC(=O)C1=C(CF)NC2=C(C(=O)OC2)[C@H]1c1cc(F)cc(F)c1C1CC1 (single isomer, unassigned) [Example 13] | 20 | 1.6*
5 | COC(=O)C1=C(CF)NC2=C(C(=O)OC2)[C@H]1c1cc(F)cc(F)c1C(F)(F)F (single isomer, unassigned) [Example 10] | 40 | 1.8
6 | COC(=O)C1=C(CF)NC2=C(C(=O)OC2)[C@H]1c1cccc(F)c1[C@H]1CC1(F)F (single isomer, unassigned) [Example 1, methyl (R)-4-(2-((R or S)-2,2-difluorocyclopropyl)-3-fluorophenyl)-2-(fluoromethyl)-5-oxo-1,4,5,7-tetrahydrofuro[3,4-b]pyridine-3-carboxylate] | 24 | 1.9
7 | COC(=O)C1=C(CF)NC2=C(C(=O)OC2)[C@H]1c1ccccc1OC(F)F (single isomer, unassigned) [Example 9] | 100 | 1.5
8 | COC(=O)C1=C(CF)NC2=C(C(=O)OC2)[C@H]1c1cccc(F)c1[C@H](F)CF (single isomer, unassigned) [Example 6] | 17 | 1.4*
9 | COC(=O)C1=C(CF)NC2=C(C(=O)OC2)[C@H]1c1cccc(F)c1CC(F)F (single isomer, unassigned) [Example 11] | 70 | 2.0
10 | COC(=O)C1=C(CF)NC2=C(C(=O)OC2)[C@H]1c1cc(F)cc(F)c1[C@H](F)CF (single isomer, unassigned) [Example 16, methyl (R)-4-(2-((R or S)-1,2-difluoroethyl)-3,5-difluorophenyl)-2-(fluoromethyl)-5-oxo-1,4,5,7-tetrahydrofuro[3,4-b]pyridine-3-carboxylate] | 10 | 1.5
11 | COC(=O)C1=C(CF)NC2=C(C(=O)OC2)[C@H]1c1cc(F)cc(F)c1[C@H](C)F (single isomer, unassigned) [Example 5, methyl (R)-4-(3,5-difluoro-2-((R or S)-1-fluoroethyl)phenyl)-2-(fluoromethyl)-5-oxo-1,4,5,7-tetrahydrofuro[3,4-b]pyridine-3-carboxylate] | 20 | 1.9
12 | COC(=O)C1=C(CF)NC2=C(C(=O)OC2)[C@H]1c1cc(F)cc(F)c1[C@H]1CC1(F)F (single isomer, unassigned) [Example 4, Methyl (R)-4-(2-((R or S)-2,2-difluorocyclopropyl)-3,5-difluorophenyl)-2-(fluoromethyl)-5-oxo-1,4,5,7-tetrahydrofuro[3,4-b]pyridine-3-carboxylate] | 20 | 1.9
13 | COC(=O)C1=C(CF)NC2=C(C(=O)OC2)[C@H]1c1cc(F)ccc1C(F)(F)F (single isomer, unassigned) [Example 23] | 120 | 3.5
14 | COC(=O)C1=C(CF)NC2=C(C(=O)OC2)[C@H]1c1cccc(F)c1[C@@H](C)F (single isomer, unassigned) [Example 8] | 20 | 2.0
15 | COC(=O)C1=C(CF)NC2=C(C(=O)OC2)[C@H]1c1cccc(F)c1C(F)(F)F (single isomer, unassigned) [Example 17] | 120 | 1.2
16 | COC(=O)C1=C(CF)NC2=C(C(=O)OC2)[C@H]1c1cc(F)cc(F)c1C(F)F (single isomer, unassigned) [Example 18] | 210 | 1.8
17 | COC(=O)C1=C(CF)NC2=C(C(=O)CC2)[C@H]1c1cccc(F)c1C1CC1 (single isomer, unassigned) [Example 28] | 60 | 1.9
18 | COC(=O)C1=C(CF)NC2=C(C(=O)OC2)[C@H]1c1cccc(F)c1C(F)F (single isomer, unassigned) [Example 15] | 290 | 1.3
